The text below walks through data of patent US12324814B2, “Manganese composition for enhancing immunity” (PEKING UNIVERSITY, priority 2019, dated 2025).

One series has as its system melanoma B16-F10. The series is described as follows: Subcutaneous B16-F10 melanoma, manganese colloid with cyclophosphamide. It counts as in vivo, mice. Particulars: 14 days after inoculation; colloid 5 mg/kg i.m. every two days; CTX 140 mg/kg i.p. day 6, 9, 12.
A further series relates to influenza virus. On the set-up: species or system mice. Particulars: mouse, in vivo.
For series [1] the following is noted: 20 μg manganese i.m. in 100 μl saline.
Procedure: The mice were randomly divided into 2 groups according to body weight, namely: intramuscular injection of MnCl2 solution group (20 μg MnCl2 dissolved in 100 μl saline), and intramuscular injection of manganese colloid group (20 μg manganese colloid suspended in 100 μl saline). 20 μg here refers to the mass of the element manganese. At different times after the injection, 0.1 g of the muscle at the injection site was taken, digested with a microwave digestion apparatus, and then the content of the element manganese was determined by ICP-MS (Thermo X SERIES II).
The test system of series [2] is mouse peritoneal macrophages. It counts as cell-based.
For series [3], the system named is inflammatory factors IL-1β and IL-18. It counts as cell-based, mouse.
Another series concerns IL-1β. In words: Induction of inflammatory factor IL-1β by manganese products. Type of series: cell-based. Particulars: FIG. 2B. Here is the method:
Each of the products was tested.

Another series deals with B16/OVA melanoma cells. In words: B16/OVA melanoma subcutaneous in situ tumor model after immunization. It counts as in vivo, mice. Particulars: 21 days after tumor inoculation; immunized three times with OVA ± adjuvant. The source says:
The mice were randomly divided into 4 groups according to body weight: blank control group (con), OVA control group, OVA and manganese colloid group (OVA+Mn), and OVA and aluminum adjuvant group (OVA+Al). After immunizing the mice three times according to the experimental scheme (once every 7 days), the B16/OVA melanoma cells were subcutaneously inoculated to establish an in situ tumor model. […] 21 days after tumor inoculation, the average tumor size of mice in the control group was 1906 mm^3, the average tumor size of mice in the OVA group was 925.5 mm^3, the average tumor size of mice immunized with manganese colloid was 222.9 mm^3, and the average tumor size of mice in the aluminum adjuvant group was 1946 mm^3, as shown in FIG. 14B.

Another series concerns B16-OVA tumor. The series is described as follows: B16-OVA tail vein tumor metastasis model after immunization. Type of series: in vivo, mice. The following applies: 21 days after tumor injection. Here is the method: Mn2OHPO4 colloid and aluminum adjuvant were mixed respectively with antigen OVA to immunize mice. Immunizations were performed 3 times with once every 7 days to activate the immune response in the body. B16-OVA tumor was injected into the tail vein to establish a tumor metastasis model. The mice were sacrificed 21 days after the tumor injection, and the lung tissues were taken out.

Consider `O=P1(N(CCCl)CCCl)NCCCO1` (stereo not shown) [CTX, cyclophosphamide monohydrate], for which, in the series on melanoma B16-F10, the tumor size came to 393.9 mm^3.
Consider CTB, for which, in the series on influenza virus, the “inflammation in the lungs” value is “a small amount of inflammation in lung” and the “weight of the mice after influenza infection” value is on record as “recovered slightly after a slight weight loss”.
Regarding `[Cl][Mn][Cl]` [MnCl2], the “retention at the injection site (manganese content in muscle)” value in series [1] is given as “quickly metabolized”. Besides, the “expression of type I interferon (ISG54, Viperin, total type I interferon in supernatant)” value in series [2] is given as “can activate the expression of type I interferon”. Also, in series [3], the “ability to activate inflammatory factors (caspase 1 and IL-1β cleavage, IL-1β and IL-18)” value was “significantly stronger than that of aluminum adjuvant”; the “ability to activate inflammatory factors in NLRP3 knockout cells” value is “significantly lowered”. Further, in the series on IL-1β, the “ability to activate inflammatory factors, MnCl2 compared with manganese colloid” value is “have the same ability to activate inflammatory factors”.

B1: OVA: ovalbumin antigen (InvivoGen, #vac-pova), given without adjuvant (protein, UniProt P01012 2-386, looked up)
Ovalbumin: GSIGAASMEFCFDVFKELKVHHANENIFYCPIAIMSALAMVYLGAKDSTRTQINKVVRFDKLPGFGDSIEAQCGTSVNVHSSLRDILNQITKPNDVYSFSLASRLYAEERYPILPEYLQCVKELYRGGLEPINFQTAADQARELINSWVESQTNGIIRNVLQPSSVDSQTAMVLVNAIVFKGLWEKAFKDEDTQAMPFRVTEQESKPVQMMYQIGLFRVASMASEKMKILELPFASGTMSMLVLLPDEVSGLEQLESIINFEKLTEWTSSNVMEERKIKVYLPRMKMEEKYNLTSVLMAMGITDVFSSSANLSGISSAESLKISQAVHAAHAEINEAGREVVGSAEAGVDAASVSEEFRADHPFLFCIKHIATNAVLFFGRCVSP
For B1, in the series on B16/OVA melanoma cells, the average tumor size came to 925.5 mm^3. In the series on B16-OVA tumor, the “melanomas on the lungs” value is “a certain number of melanomas”.
